Assay results published in PMC12406258, “Uncovering the Unusual Inhibition Mechanism of a Trypanosome Alternative Oxidase Inhibitor Displaying Broad-Spectrum Activity against African Animal Trypanosomes” (Journal of Medicinal Chemistry, 2025).
Where two headings read alike, the source gives them in different places.

What was measured:
[1] = system: T. b. brucei WT (s427) trypomastigotes; assay: microbe, parasite or virus in culture; type: cell-based; conditions: Trypanosoma brucei
Description: (§1) Other Trypanosoma species used in this study include T. evansi AntTat 3/3 (Wild-type); and T. equiperdum BoTat 1 (Bordeaux trypanozoon antigenic type 1) P (wild-type). All the trypanosomes were used only as bloodstream trypomastigotes and cultured in the standard Hirumi’s Modified Iscove’s medium #9 (HMI-9), supplemented with 10% heat-inactivated Fetal Bovine Serum (FBS), 14 μL/L β-mercaptoethanol, and 3.0 g sodium hydrogen carbonate per liter of medium (pH 7.4). Trypanosomes were cultured in vented flasks at 37 °C in a 5% CO2 atmosphere.
(§2) Briefly, this protocol involves preparing a 96-well cell culture plate with a 100 μL serially diluted test compound (200 μM top concentration) in HMI-9 + 10% FBS (24 wells per control drug or test compound, with the 24th well serving as drug-free). This is followed by adjusting the cell density of mid-log-phase trypanosome cultures to the required concentration of 2 × 10^5 cells/mL (2 × 10^4 cells/well). […] All incubations were carried out at 37 °C with 5% CO2. […] EC50 values were calculated using GraphPad Prism 9.0 software via nonlinear regression with an equation for a sigmoidal dose–response curve with variable slope (GraphPad Software Inc., San Diego, CA, USA).

T. brucei B48 = assay: microbe, parasite or virus in culture; type: cell-based, T. b. brucei; conditions: Trypanosoma brucei, read-out: T. brucei B48 EC50
Description: as §1, §2

T. brucei aqp1-3 null = assay: microbe, parasite or virus in culture; type: cell-based, T. b. brucei; conditions: Trypanosoma brucei, read-out: aqp1-3 null EC50
Description: as §1, §2

T. congolense WT = assay: Drug sensitivity assay, T. congolense WT bloodstream forms; type: cell-based; conditions: Trypanosoma congolense
Description: The susceptibilities of trypanosomes to compound 1 were determined as previously described using the resazurin (Alamar Blue) assay. Briefly, this protocol involves preparing a 96-well cell culture plate with a 100 μL serially diluted test compound (200 μM top concentration) in HMI-9 + 10% FBS (24 wells per control drug or test compound, with the 24th well serving as drug-free). This is followed by adjusting the cell density of mid-log-phase trypanosome cultures to the required concentration of 2 × 10^5 cells/mL (2 × 10^4 cells/well). Then, 100 μL of the adjusted cell density/culture was added to all 24 wells in the plate, then incubating trypanosomes and test compound for 48 h followed by the addition of 20 μL filter-sterilized resazurin solution prepared by adding 25 mg resazurin sodium salt to 200 mL filter-sterilized PBS. This was followed by a further 24 h of incubation. All incubations were carried out at 37 °C with 5% CO2. […] Fluorescence was measured in the 96-well plates with a FLUOstar Optima (BMG Labtech, Durham, NC, USA) at wavelengths of 544 nm for excitation, 590 for emission, and a gain of 1250. EC50 values were calculated using GraphPad Prism 9.0 software via nonlinear regression with an equation for a sigmoidal dose–response curve with variable slope (GraphPad Software Inc., San Diego, CA, USA).

T. equiperdum WT = assay: Resazurin-based drug sensitivity assay, T. equiperdum WT; type: cell-based; conditions: Trypanosoma equiperdum
Description: as §1, §2

T. brucei wild type s427 = assay: Growth curve of T. brucei s427, continuous or 24 h limited exposure; type: cell-based; conditions: 2 × and 5 × EC50
Description: The results in Figure , which show the growth curve of T. brucei wild type s427 grown in the continuous presence or after a limited exposure (24 h) to 1, indicate that the growth pattern of cells with long-time exposure was similar to that of cells with limited exposure to 1. The compound seemed to rapidly induce an apparent growth inhibition, after approximately 4h, followed by a steep decline in population from 30 h. […] Thus, the effects of 1 on trypanosomes are irreversible before population decline begins.
2 Growth curve of T. brucei wild type s427 grown in either the continuous presence of 1 at indicated concentrations (filled symbols) or with the drug washed out with fresh media after 24 h (open symbols; the arrows indicate the time when compound 1 was withdrawn), or untreated (no drug control). The results presented are those of three biological repeats. Error bars represent SD of the biological replicates.

Stability in PBS buffer = conditions: 37 °C

Which EC50 ([1]; read-out: T. b. brucei WT (+5 mM glycerol) EC50, incubated in the presence of 5 mM glycerol) does the source give for `Cc1cc(O)ccc1C(=O)OCCCCCCCCCCCCCC[P+](c1ccccc1)(c1ccccc1)c1ccccn1.[Br-]` [Compound 1, {14-[(4-Hydroxy-2-methylbenzoyl)-oxy]-tetradecyl}-diphenyl(pyridin-2-yl)-Phosphonium Bromide] here?
Its EC50 is 1.4 ± 0.5 nM.

What about the EC50 ([1]; s427, no glycerol, n ≥ 4, read-out: T. b. brucei WT (no glycerol) EC50) of the same compound?
Its EC50 is 3.1 ± 0.6 nM.

What about the EC50 (T. brucei B48) of the same compound?
Its EC50 is 2.5 ± 0.1 nM.

And the EC50 (T. brucei aqp1-3 null)?
Its EC50 is 1.2 ± 0.13 nM.

And the EC50 (T. congolense WT)?
Its EC50 is 41 ± 7 nM.

What about the EC50 (T. equiperdum WT) of the same compound?
The EC50 was 2.2 ± 0.2 nM.

And the “Time from which population steeply declines” value (T. brucei wild type s427)?
The value was ≥ 30 h.

What about the “Time to apparent growth inhibition” value (T. brucei wild type s427) of the same compound?
The value was “approximately 4 h”.

What about the “Stability in PBS buffer” value (Stability in PBS buffer) of the same compound?
Its value is ≥ 1 h.
